Measurements taken from patent US9725695B2, “Stem cell defined media for xeno-free and feeder free conditions and uses thereof” (The Regents of the University of California, priority 2010, dated 2017).

What was measured:
H-9s [1] = assay: H-9s concentration after 3 days in low protein formulation with different BME concentrations; type: cell-based, human; conditions: 20 μM, low protein amount formulation, p<0.01, t-test
Excerpt: FIG. 7: H-9s concentration after 3 days of culture in low protein based formulation with different BME concentrations. Error bars were generated through independent quadruplicates.
Having a meticulous comparison between all RCCDs performed, it was noticed that BME concentration was different due to supplier differences. […] Still, considering that BME is not just an antioxidant but a denaturizing chemical as well, it is expected that this compound would have a greater effect on media formulated with low amount of proteins.
Astonishingly, BME is normally added and recommended in KSR based media and feeder free media like mTeSR1 and StemPro. However, the negative effect of this compound is probably buffered by the huge amount of proteins that these media got, around 10 grams per liter, while the invention provides at least 20 times less. This discovery represents a breakthrough in terms of what are the real needs of an ES cell, drastically changing the media and cell's environment.

H-9s [2] = conditions: extra amount of bicarbonate (2.4 g/L vs 1.2 g/L)
Description: A simple test was performed with KSR formulation, just changing basal media supplier and consequently just changing the amount of buffer.

wild-type iPS line [3] = assay: Feeder free 2-variable RCCD (Activin A, TGF-beta-1): percent of pluripotency, FACs dual staining SSEA-4 and Nanog; type: cell-based; conditions: p>0.1
Excerpt: (§1) Aiming to improve the efficacy of the media, stimulating other pathways, besides the FGF-path, were explored. The Nodal/Activin pathway is related to pluripotency/self-renew (XIAO, 2006), than the factors from TGF superfamily. Activin A (Peprotech, Rocky Hill, N.J.; catalog number 120-14E) and TGF-beta-1 (Peprotech, Rocky Hill, N.J.; catalog number 100-21C), were investigated in a 2-variable RCCD (Table 20).
(§2) In these experiments, a wild-type iPS line was used. In the same fashion as the feeder conditions, cells were homogenously inoculated in several plates in each different formulation. The main difference in this step was the readout analyzed. Kinetic growth were not obtained due to the problems related to managing several feeder-free plates. Thus, instead of calculating integral and Px,max, two other readouts were used. The first one was the final cell growth achieved, called here as self-renew and the other one was percent of pluripotency, obtained from FACs analyzes by the dual staining with SSEA-4 and Nanog.

H-9 cells [4] = assay: Kinetic growth of H-9 cells on feeders in PB12/RCCD media formulations (Integral, Px,max, μ) with Statistica effect/regression models; type: cell-based, human; design: Effect on Integral / Effect on μ: unit not given here; conditions: for Effect on Integral / Effect on Px, max / Effect on μ: PB12, level −1 to +1 (ranges Table 2), least square method; for Regression coefficient (Linear), Px, max / Regression coefficient (Quadratic), Px, max / Regression coefficient (Linear), Integral: 1st RCCD, codified values; for Regression coefficient (Linear), Px, max / Regression coefficient (Quadratic), Px, max: R^2 = 80.0%; for Regression coefficient (Linear), Integral: R^2 = 86.4%
Excerpt: A Placket-Burman matrix of 12 independent conditions (PB12) was used (Table 1), according to the Design of Experiments (DOE) methodology for the screening of 8 factors (RODRIGUES & IEMMA, 2005). […] Since this first step, the PB12, is a screening step, whenever it was possible the concentration of the factor was set as zero. • Condition 0: represents the central condition of the DOE, being the mean value obtained from averaging the values for levels −1 and +1. In addition to the central condition, the “main” central condition is defined as a state when all factors are set to condition 0.
In total, 14 different conditions were examined: 12 related to the PB12 matrix, 1 related to the “main” central condition that was performed in quadruplicates for the error estimation and a control condition with KSR. The basal media was: a 1:1 mixture 1:1 of DMEM and Ham's F12 (DMEM/F12; Mediatech, Manassas, Va.; catalog number 10-092), 1% NEAA, 110 μM β-mercaptoethanol (BME; Sigma-Aldrich, St. Louis, Mo.; catalog number M7522), 50 μg/mL gentamicin sulfate (Mediatech, Manassas, Va.; catalog number 30-005-CR) and 8 ng/mL of FGF-2 (Peprotech, Rocky Hill, N.J.; catalog number 100-18B). FGF-2 was reconstituted in PBS at 100 ug/mL and was added to the media for a final concentration of 8 ng/mL at the start of the culture. During the culture period, additional FGF-2 (8 ng/mL) was added directly to the media on a daily basis.
Every 24 hours one well from each condition and 4 wells from the main central condition were enzymatic dissociated and counted with the help of an automatic counter (NucleoCounter NC-100), for an unbiased measure of cell growth. In that way, by the end of the 5 days, a kinetic curve was obtained for every single condition (FIG. 1). Readouts like integral of cells (integral; defined as area below the curve), maximum productivity (Px,max; defined as the highest value obtained from dividing cell number by time) or and specific global ( ) growth rate (or speed of cell growth obtained from the formula dX/dt=pX) were calculated in order to perform the statistics comparing all different curves (Table 3).
Through the estimation of the effects from the least square method and the calculation of the errors obtained by the replicates performed on the main central condition (formulation 13), “t” was calculated as the ratio of effect and error.
By comparing the calculated “t” value with “t” values from a Student's “t” distribution table for a bilateral distribution, the p-value was obtained for each parameter in every readout.
Aiming to understand better the contribution of each protein in the formulation of the media, an optimization step was performed using the Three-Variable Rotatable Central Composite Design (RCCD; Rodrigues and lemma, 2005). The concentration range of each supplement was the same as given in Table 2 for the PB12 design, with the same concentration for the level 0, −1, and +1 condition.
The basal media was: a 1:1 mixture 1:1 of DMEM and Ham's F12 (DMEM/F12; Mediatech, Manassas, Va.; catalog number 10-092), 1.5% NEAA, 8.46 mg/L citric acid, 0.89×10^−4 mM sodium selenite, 2 mM glutamine (total of 4.5 mM), BME 110 μM, gentamicin sulfate 50 μg/mL and 8 ng/mL of FGF-2.
As before, kinetics growth of H-9 cells were obtained and readouts like Integral and Px, max were calculated (Table 6).
Through the use of Statistica software (StatSoft, Tulsa, Okla.), a second order mathematical model was generated in order to evaluate the real contribution of each supplement (Table 7).

H-9 cells [5] = assay: as above; type: cell-based, human; conditions: codified values
wild-type iPS line [6] = assay: Feeder free 2-variable RCCD (Activin A, TGF-beta-1): self-renew (final cell growth achieved); type: cell-based; conditions: first feeder-free 2-variable RCCD, R^2 = 90.3%, p < 0.1; for Self-renew regression Coefficient (Linear): linear term of coded variable; for Self-renew regression Coefficient (Quadratic): quadratic term of coded variable
Excerpt: as §1, §2
Analyzing the model, it is clear that TGF-beta-1 and Activin A have similar parameters. Additionally, they got a negative interaction with each other; meaning that, from an optimization point of view, if one is raised the other should be diminished. Taking a look into the surface gives a better clue of the best regions.

[7] = RCCD for NEAA, citric acid and glutamine, R^2 = 89.5%
[8] = RCCD for NEAA, citric acid and glutamine, R^2 = 90.7%

OCCS [BME, β-mercaptoethanol]
effect on ES cell growth (H-9s [1]): statistically negative effect

O=C([O-])O.[Na+] [bicarbonate, sodium bicarbonate]
cell growth with KSR formulation (H-9s [2]): perform better

TGF-beta-1: TGF-beta-1 (Peprotech), factor from TGF superfamily
statistical relevance of model parameters for pluripotency (wild-type iPS line [3]): no parameters either related to Activin A or TGF-beta-1 that were statistically relevant

O=C(O)CC(O)(CC(=O)O)C(=O)O [Citric Acid, citric acid]
Effect on Integral (H-9 cells [4]): 17.09 | Effect on Px, max (H-9 cells [4]): 0.0060 | Effect on μ (H-9 cells [4]): 0.0065 | Regression coefficient (Linear), Px, max (H-9 cells [5]; [7]): −0.0020 | Regression coefficient (Quadratic), Px, max (H-9 cells [5]; [7]): −0.0104 | Regression coefficient (Linear), Integral (H-9 cells [5]; [8]): 1.63 | Regression coefficient (Quadratic), Integral (H-9 cells [5]; [8]): −33.83

Transf.: CellPrime rTransferrin AF recombinant human transferrin (Millipore)
Regression coefficient (Linear), Px, max (H-9 cells [4]): 0.0107 | Regression coefficient (Quadratic), Px, max (H-9 cells [4]): 0.0028 | Regression coefficient (Linear), Integral (H-9 cells [4]): 43.29 | Effect on Integral (H-9 cells [4]): 65.44 | Effect on Px, max (H-9 cells [4]): 0.0189 | Effect on μ (H-9 cells [4]): 0.0169 | Regression coefficient (Quadratic), Integral (H-9 cells [5]; 1st RCCD, R^2 = 86.4%): 4.06 | Regression coefficient (Linear), Px, max (H-9 cells [5]; 2nd RCCD, R^2 = 37.9%): 0.0027 | Regression coefficient (Quadratic), Px, max (H-9 cells [5]; 2nd RCCD, R^2 = 37.9%): −0.0014 | Regression coefficient (Linear), Integral (H-9 cells [5]; 2nd RCCD, R^2 = 62.7%): 18.70 | Regression coefficient (Quadratic), Integral (H-9 cells [5]; 2nd RCCD, R^2 = 62.7%): 5.70 | Regression coefficient (Linear), Integral (H-9 cells [5]; 3rd RCCD, R^2 = 65.8%): 4.61 | Regression coefficient (Quadratic), Integral (H-9 cells [5]; 3rd RCCD, R^2 = 65.8%): 3.59 | Regression coefficient (Linear), Px, max (H-9 cells [5]; 3rd RCCD, R^2 = 86.4%): 0.0013 | Regression coefficient (Quadratic), Px, max (H-9 cells [5]; 3rd RCCD, R^2 = 86.4%): 0.0018 | Regression coefficient (Linear), Px, max (H-9 cells [5]; 4th RCCD, R^2 = 69.0%): 0.0021 | Regression coefficient (Quadratic), Px, max (H-9 cells [5]; 4th RCCD, R^2 = 69.0%): −0.0034 | Regression coefficient (Linear), Integral (H-9 cells [5]; 4th RCCD, R^2 = […]): 1.17 | Regression coefficient (Quadratic), Integral (H-9 cells [5]; 4th RCCD, R^2 = […]): −14.34

NC(=O)CC[C@H](N)C(=O)O [Glut, glutamine]
Effect on Integral (H-9 cells [4]): −39.15 | Effect on Px, max (H-9 cells [4]): −0.0088 | Effect on μ (H-9 cells [4]): 0.0023 | Regression coefficient (Linear), Px, max (H-9 cells [5]; [7]): −0.0010 | Regression coefficient (Quadratic), Px, max (H-9 cells [5]; [7]): −0.0050 | Regression coefficient (Linear), Integral (H-9 cells [5]; [8]): 2.10 | Regression coefficient (Quadratic), Integral (H-9 cells [5]; [8]): −10.20

NCCO [Etan., ethanolamine]
Effect on Integral (H-9 cells [4]): −0.56 | Effect on Px, max (H-9 cells [4]): −0.0055 | Effect on μ (H-9 cells [4]): 0.0006

Activin A: Activin A (Peprotech), factor from TGF superfamily
Self-renew regression Coefficient (Linear) (wild-type iPS line [6]): −0.430 | Self-renew regression Coefficient (Quadratic) (wild-type iPS line [6]): 0.798 | statistical relevance of model parameters for pluripotency (wild-type iPS line [3]): no parameters either related to Activin A or TGF-beta-1 that were statistically relevant

IGF-1
Regression coefficient (Linear), Px, max (H-9 cells [4]): 0.0121 | Regression coefficient (Quadratic), Px, max (H-9 cells [4]): −0.0036 | Regression coefficient (Linear), Integral (H-9 cells [4]): 42.99 | Effect on Integral (H-9 cells [4]): 97.69 | Effect on Px, max (H-9 cells [4]): 0.0292 | Effect on μ (H-9 cells [4]): 0.0027 | Regression coefficient (Quadratic), Integral (H-9 cells [5]; 1st RCCD, R^2 = 86.4%): −1.19 | Regression coefficient (Linear), Px, max (H-9 cells [5]; 2nd RCCD, R^2 = 37.9%): 0.0021 | Regression coefficient (Quadratic), Px, max (H-9 cells [5]; 2nd RCCD, R^2 = 37.9%): −0.0011 | Regression coefficient (Linear), Integral (H-9 cells [5]; 2nd RCCD, R^2 = 62.7%): 17.03 | Regression coefficient (Quadratic), Integral (H-9 cells [5]; 2nd RCCD, R^2 = 62.7%): −4.60 | Regression coefficient (Linear), Integral (H-9 cells [5]; 3rd RCCD, R^2 = 65.8%): 0.24 | Regression coefficient (Quadratic), Integral (H-9 cells [5]; 3rd RCCD, R^2 = 65.8%): 7.12 | Regression coefficient (Linear), Px, max (H-9 cells [5]; 3rd RCCD, R^2 = 86.4%): 0.0003 | Regression coefficient (Quadratic), Px, max (H-9 cells [5]; 3rd RCCD, R^2 = 86.4%): 0.0041 | Regression coefficient (Linear), Px, max (H-9 cells [5]; 4th RCCD, R^2 = 69.0%): 0.0028 | Regression coefficient (Quadratic), Px, max (H-9 cells [5]; 4th RCCD, R^2 = 69.0%): 0.0046 | Regression coefficient (Linear), Integral (H-9 cells [5]; 4th RCCD, R^2 = […]): 3.10 | Regression coefficient (Quadratic), Integral (H-9 cells [5]; 4th RCCD, R^2 = […]): 10.30

TGF-β-1
Self-renew regression Coefficient (Linear) (wild-type iPS line [6]): −0.508 | Self-renew regression Coefficient (Quadratic) (wild-type iPS line [6]): 0.936

O=[Se]([O-])[O-].[Na+].[Na+] [Selenite, sodium selenite]
Effect on Integral (H-9 cells [4]): 7.46 | Effect on Px, max (H-9 cells [4]): 0.0029 | Effect on μ (H-9 cells [4]): 0.0098
